Among the data in patent US9174992B2, “Heterobicyclic compounds” (Amgen Inc., priority 2012, dated 2015) are IC50 values, retold here.

In the test the target is PDE10A (UniProt Q9Y233). Briefly: PDE10 enzyme inhibition, IMAP TR-FRET assay (Example A, MPDE10A7 Enzyme Activity and Inhibition). Particulars: approximate IC50 value, Table 10. The test is classed as biochemical. The method in brief: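 Compounds were preincubated 60 min at room temperature with PDE10A enzyme or tissue homogenate, then fluorescein-labeled cAMP or cGMP was added for 90 min. After stopping with IMAP binding reagents, TR-FRET was read and IC50s were fitted with a four-parameter logistic equation.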
In general terms: In TR-FRET formats the signal depends on donor and acceptor labels being close together.

Usually IC50 stands for the concentration at which inhibition is half-maximal.

`O=c1n(C2CC2)c2nccnc2n1[C@H]1CC[C@H](Nc2ccc3ncccc3n2)CC1` [Example 227, 1-(trans-4-((1,5-naphthyridin-2-yl)amino)cyclohexyl)-3-cyclopropyl-1H-imidazo[4,5-b]pyrazin-2(3H)-one] showed a 50% inhibitory concentration (IC50) of 1.87 nM.
For the compound `O=c1n(C2CC2)c2nccnc2n1[C@H]1C[C@H](Nc2ccc3ncccc3n2)C1` [Example 228, 1-(trans-3-((1,5-naphthyridin-2-yl)amino)cyclobutyl)-3-cyclopropyl-1H-imidazo[4,5-b]pyrazin-2(3H)-one], the IC50 was found to be 246 nM.
Take `O=c1n(C2CC2)c2nccnc2n1[C@H]1C[C@H](Nc2nc3ccc(Cl)cc3o2)C1` [Example 229, 1-(trans-3-((6-chlorobenzo[d]oxazol-2-yl)amino)cyclobutyl)-3-cyclopropyl-1H-imidazo[4,5-b]pyrazin-2(3H)-one]: 10.1 nM corresponded to half-maximal inhibition (IC50).
`O=c1n(C2CC2)c2nc(Br)cnc2n1[C@H]1C[C@H](Nc2nc3ccccc3s2)C1` [Example 230, 1-(trans-3-(benzo[d]thiazol-2-ylamino)cyclobutyl)-5-bromo-3-cyclopropyl-1H-imidazo[4,5-b]pyrazin-2(3H)-one] had an IC50 of 0.393 nM.
Take `O=c1n(C2CC2)c2nc(Br)cnc2n1[C@H]1C[C@H](Nc2ncc3ccc(F)cc3n2)C1` [Example 231, 5-bromo-3-cyclopropyl-1-(trans-3-((7-fluoroquinazolin-2-yl)amino)cyclobutyl)-1H-imidazo[4,5-b]pyrazin-2(3H)-one]: the half-maximal inhibitory concentration (IC50) was 31.5 nM.
Take “(R)-1-(trans-3-(benzo[d]thiazol-2-ylamino)cyclobutyl)-3-hydroxy-3-methyl-1H-pyrrolo[2,3-b]pyridin-2(3H)-one and (S)-1-(trans-3-(benzo[d]thiazol-2-ylamino)cyclobutyl)-3-hydroxy-3-methyl-1H-pyrrolo[2,3-b]pyridin-2(3H)-one [Example 181]”: the IC50 worked out at 2.86 nM.
